Values after ≈ are worked out from the molar mass of the structure shown. Where two headings read alike, the source gives them in different places.
Assays:
Format in all cases: cell-based
[1] = tested on: Sclerotinia sclerotiorum (sensitive, wild-type); experiment: Activity against Sclerotinia sclerotiorum in tissue culture plate assay with mycelial plugs, wild type; conditions: 168 h, % growth after 7 days at 18° C., read-out: Absolute IC50, wild type
Experimental: Fungal strains used: • a) Sclerotinia sclerotiorum (sensitive, wild-type) • b) Mutants of Sclerotinia sclerotiorum
Pure cultures are grown on DOB-agar medium, (3.4 g/l YNB (Becton Dickinson), 10 g/l Ammoniumsulfat, 40 g/l Glucose) for 5-7 days at 18° C. Mycelial plugs (6 mm diame-ter) taken from the margin of the colonies are used as inoculum for the sensitivity test. 500 μl fungicide-amended DOB medium (3.4 g/l YNB (Becton Dickinson), 10 g/l Ammoniumsulfat, 40 g/l Glucose, adjusted to pH 7) are added to each well of 24-well tissue culture plates. Each well is then inoculated with a mycelial plug, with the myce-lium surface up. Two replicate wells are used for each isolate and fungicide concentration. Growth is assed after 7 days incubation at 18° C. in the dark by estimating % growth in the well. IC50-values (concentration of test compound resulting in 50% inhibition of fungal growth) were calculated from the resulting dose-response for each compound and strain.

[2] = tested on: Botrytis cinerea (sensitive, wild-type); experiment: Activity against Botrytis cinerea in the microtiter test, wild type; conditions: turbidity at 620 nm after 7 days; for IC50: 168 h, read-out: Absolute IC50, wild type
Experimental: (§1) The active substances were formulated separately as a stock solution in dimethyl sulfoxide (DMSO) at a concentration of 10 000 ppm.
(§2) Fungal strains used: • a) Botrytis cinerea (sensitive, wild-type) • b) Various mutants of Botrytis cinerea
(§3) The spores of Botrytis cinerea were harvested with a cotton swab from an Oatmeal agar plate (50 g/l Oatmealagar (Sigma, Art.O-3506), 15 g/l agar, (Difco) and this is dipped in 3 ml of double concentrated DOB-medium (3.4 g/l YNB (Becton Dickinson), 10 g/l Ammoniumsulfat, 40 g/l Glucose, adjusted to pH 7) and the spore suspension is adjusted to a spore density of 3.2×10^4 spores/ml. The compound solutions were diluted from stock solution in (dimethylsulfoxide) DMSO in several steps with sterile deionized water before use. High test concentrations were 50 mg/L (ppm) or 31 mg/L (ppm). Compound solutions were transferred into empty microplates and filled up with an equal amount of spore suspension.
(§4) The antifungal activity was determined by measuring the turbidity of a culture in 96-well microplates in the presence of test compounds after 7 days incubation at 620 nm. A blank value for each concentration (growth media+compound, without spores) are subtracted from the spore suspension. The relative antifungal activity was calculated by comparing the effect of the test compounds with the effect of a DMSO control The results are shown in Table IV (for compounds of general formula I.A), VI (for compounds of general formula I.B), and VIII (for compounds of general formula I.C).
(§5) The absolute IC50-values (concentration of test compound resulting in 50% inhibition of fungal growth) were calculated from the resulting dose-response for each compound and strain.

[3] = tested on: Botrytis cinerea mutant H108P; experiment: Activity against Botrytis cinerea in the microtiter test, mutant H108P; conditions: for IC50: Botrytis cinerea, MUTANTH108P, 168 h, read-out: Absolute IC50, H108P, Botrytis cinerea mutant H108P
Text: as §1
(§6) Spontaneous mutants were selected by plating out B. cinerea spores (in the range of 10^7-10^8) on DOB agar plates (3.4 g/l YNB (Becton Dickinson), 10 g/l Ammoniumsulfat, 40 g/l Glucose, 20 g/l Agar), amended with different lethal concentrations of active ingredient. After 7-14 days growing colonies were transferred to DOB agar plates, amended with the same lethal concentrations of active ingredient and then further propagated on Oatmeal agar medium (50 g/l Oatmeal agar (Sigma), 15 g/l Agar (Difco) for sensitivity testing.
as §2, §3, §4
(§7) A compound showing an IC50 (MUT) above the IC50 (WT) and showing an IC50 (MUT) to IC50 (WT) ratio being in a range above 100 is considered unsuitable (“I”) as DHODH inhibitor.
as §5

[4] = tested on: Botrytis cinerea mutant G111E; experiment: Activity against Botrytis cinerea in the microtiter test, mutant G111E; conditions: for IC50: Botrytis cinerea, MUTANTG111E, 168 h, read-out: Absolute IC50, G111E, Botrytis cinerea mutant G111E
Text: as §1, §6, §2, §3, §4, §7, §5

[5] = tested on: Botrytis cinerea mutant G111V; experiment: Activity against Botrytis cinerea in the microtiter test, mutant G111V; conditions: for IC50: Botrytis cinerea, MUTANTG111V, 168 h, read-out: Absolute IC50, G111V, Botrytis cinerea mutant G111V
Text: as §1, §6, §2, §3, §4, §7, §5

[6] = tested on: Botrytis cinerea mutant V195F; experiment: Activity against Botrytis cinerea in the microtiter test, mutant V195F; conditions: for IC50: Botrytis cinerea, MUTANTV195F, 168 h, read-out: Absolute IC50, V195F, Botrytis cinerea mutant V195F
Text: as §1, §6, §2, §3, §4, §7, §5

[7] = tested on: Botrytis cinerea mutant Y208H; experiment: Activity against Botrytis cinerea in the microtiter test, mutant Y208H; conditions: for IC50: Botrytis cinerea, MUTANTY208H, 168 h, read-out: Absolute IC50, Y208H, Botrytis cinerea mutant Y208H
Text: as §1, §6, §2, §3, §4, §7, §5

[8] = turbidity at 620 nm after 7 days

For CN1c2c(F)cccc2C(c2cnc3c(F)cccc3c2)=NC1(C)C, the IC50 [1] was 0.03 µg/mL (≈ 0.0889 µM).
COc1ccc2c(c1)OC1(CCC1)N=C2c1cnc(C(F)F)c(C)c1 [Ex-37] gave an IC50 [2] of 0.03 µg/mL (≈ 0.0871 µM), an IC50 [3, 8] of 0.06 µg/mL (≈ 0.174 µM) and an IC50 [4, 8] of 0.54 µg/mL (≈ 1.57 µM). For the same compound, the IC50 [5, 8] was 0.09 µg/mL (≈ 0.261 µM) and the IC50 [6, 8] was 0.11 µg/mL (≈ 0.319 µM).
Compound Cc1cc(C2=NC3(CCC3)Oc3c(F)cccc32)cnc1C [Ex-29] has an IC50 ([2]; Botrytis cinerea) of 0.02 µg/mL (≈ 0.0675 µM), an IC50 [3, 8] of 0.02 µg/mL (≈ 0.0675 µM) and an IC50 [4, 8] of 2.34 µg/mL (≈ 7.9 µM). The IC50 [5, 8] was 0.04 µg/mL (≈ 0.135 µM), the IC50 [6, 8] was 0.02 µg/mL (≈ 0.0675 µM) and the IC50 [7, 8] was 0.93 µg/mL (≈ 3.14 µM).
Work on Cc1cc(C2=NC(C)(C)C(C)(C)Oc3ccccc32)cnc1C(F)F [compound 49] yielded an IC50 [2] of 0.01 µg/mL (≈ 0.029 µM), an IC50 [3, 8] of 0.32 µg/mL (≈ 0.929 µM) and an IC50 [4, 8] of 2.35 µg/mL (≈ 6.82 µM). For the same compound, the IC50 [5, 8] was 0.7 µg/mL (≈ 2.03 µM), the IC50 [6, 8] was 0.01 µg/mL (≈ 0.029 µM) and the IC50 [7, 8] was 0.97 µg/mL (≈ 2.82 µM).
In the case of CC1(c2ccccc2)N=C(c2cnc3c(F)cccc3c2)c2cccc(F)c2O1 (stereo not shown) [drawing 127, reference compound], the IC50 ([2]; Botrytis cinerea) is reported as 0.04 µg/mL (≈ 0.104 µM) and the IC50 [6, 8] is reported as 15.5 µg/mL (≈ 40.2 µM).
In the case of CC1(C)N=C(c2cnc3c(F)cccc3c2)c2cccc(F)c2N1 [reference compound], the IC50 ([2]; Botrytis cinerea) is reported as 0.005 µg/mL (≈ 0.0155 µM) and the IC50 [6, 8] is reported as 4.42 µg/mL (≈ 13.7 µM).
For Cc1cc(C2=NC(C)(C)Nc3ccccc32)cnc1C [compound 39], the “Relative antifungal activity expressed as IC50, G111E” value ([4]; {}) was “AA AA AA AA”, the “Relative antifungal activity expressed as IC50, G111V” value (“Relative antifungal activity … G111V” below) ([5]; {}) was “AA AA AA AA” and the “Relative antifungal activity expressed as IC50, V195F” value (from here on “Relative antifungal activity … V195F”) ([6]; {}) was “AA AA AA AA”.
CC(C)(C)C1(C)N=C(c2cnc3c(F)cccc3c2)c2ccccc2O1 (stereo not shown) [drawing 166] was tested, and the IC50 [1] was 0.137 µg/mL (≈ 0.393 µM).
For Cc1cc(C2=NC3(CCC3)Oc3ccccc32)cnc1C [Ex-32], the IC50 ([2]; Botrytis cinerea) was 0.12 µg/mL (≈ 0.431 µM), the “Absolute IC50, H108P” value ([3]; {}) was 0.07 ppm and the “Absolute IC50, G111E” value ([4]; {}) was 2.34 ppm. The “Absolute IC50, G111V” value ([5]; {}) was 2.85 ppm, the “Absolute IC50, V195F” value ([6]; {}) was 0.13 ppm and the IC50 [7, 8] was 1.23 µg/mL (≈ 4.42 µM).
Fc1cccc2c1OC1(CCC1)N=C2c1cnc2ccccc2c1 [reference compound] was tested, and the IC50 [2] was 0.03 µg/mL (≈ 0.0942 µM), the IC50 [3, 8] was 0.11 µg/mL (≈ 0.346 µM) and the IC50 [4, 8] was 9.48 µg/mL (≈ 29.8 µM). The IC50 [5, 8] was 0.14 µg/mL (≈ 0.44 µM), the IC50 [6, 8] was 24.1 µg/mL (≈ 75.9 µM) and the IC50 [7, 8] was 1.59 µg/mL (≈ 4.99 µM).
CC1(c2ccccc2)N=C(c2cnc3c(F)cccc3c2)c2cccc(F)c2O1 (stereo not shown) [drawing 168] gave an IC50 [1] of 0.154 µg/mL (≈ 0.399 µM).
Compound COc1ccc2c(c1)OC(C)(C)N=C2c1cnc2c(F)cccc2c1 [drawing 129, reference compound] has an IC50 ([2]; Botrytis cinerea) of 0.01 µg/mL (≈ 0.0297 µM) and an IC50 [6, 8] of 5.28 µg/mL (≈ 15.7 µM).
Cc1cc(C2=NC(C)(C)Oc3ccccc32)cnc1C [Ex 6] gave an IC50 [1] of 0.08 µg/mL (≈ 0.3 µM).
For Cc1cc(C2=NC3(CCC3)Oc3c2cccc3C(C)(C)C)cnc1C [Ex-14], the “Relative antifungal activity expressed as IC50, G111E” value ([4]; {}) was “AA AA AA AA AA”, the “Relative antifungal activity … G111V” value ([5]; {}) was “AA AA AA AA AA” and the “Relative antifungal activity … V195F” value ([6]; {}) was “AA AA AA AA AA”. For the same compound, the “Relative antifungal activity expressed as IC50, Y208H” value ([7]; {}) was “AA AA AA AA AA”.
“4-[6-(difluoromethyl)-5-methyl-3-pyridyl]-8-fluoro-2,2-dimethyl-1H-quinazoline [compound 44]” was tested, and the “Absolute IC50, wild type” value [2] was 0.01 ppm, the “Absolute IC50, H108P” value ([3]; Botrytis cinerea mutant H108P, turbidity at 620 nm after 7 days) was 0.50 ppm and the “Absolute IC50, G111E” value ([4]; Botrytis cinerea mutant G111E, turbidity at 620 nm after 7 days) was 0.08 ppm. The “Absolute IC50, G111V” value ([5]; Botrytis cinerea mutant G111V, turbidity at 620 nm after 7 days) was 0.73 ppm, the “Absolute IC50, V195F” value ([6]; Botrytis cinerea mutant V195F, turbidity at 620 nm after 7 days) was 0.03 ppm and the “Absolute IC50, Y208H” value ([7]; Botrytis cinerea mutant Y208H, turbidity at 620 nm after 7 days) was 1.64 ppm.
For Cc1cc(C2=NC(C)(C)Oc3c2cccc3C(C)(C)C)cnc1C [Ex-15], the “Relative antifungal activity … G111V” value ([5]; {}) was “AA AA AA” and the “Relative antifungal activity … V195F” value ([6]; {}) was “AA AA AA”.
CC(C)(C)C1(C)N=C(c2cnc3c(F)cccc3c2)c2ccccc2O1 (stereo not shown) [drawing 117, reference compound] was tested, and the IC50 [2] was 0.07 µg/mL (≈ 0.201 µM) and the IC50 [6, 8] was > 31 µg/mL.
In the case of CC1(C)CN=C(c2cnc3ccccc3c2)c2ccccc2O1 [reference compound], the IC50 ([2]; Botrytis cinerea) is reported as 0.001 µg/mL (≈ 0.00331 µM) and the IC50 [6, 8] is reported as 19.5 µg/mL (≈ 64.6 µM).
